Molecular target: Olfr743 (Mus musculus, UniProt L7N1Y2)
Experiment: cell-based cAMP assay (HTRF), HEK293T co-transfected with Gαolf
Conditions: 300 μM 2-acetonaphthone
From the text: The activity of candidate mouse receptors Olfr740 (SEQ ID NO: 1 and SEQ ID NO: 2), Olfr743 (SEQ ID NO: 5 and SEQ ID NO: 6), and Olfr746 (SEQ ID NO: 37 and SEQ ID NO: 38) to both indole and skatole malodors were confirmed in cell-based cAMP assays. In FIGS. 5A and 5B, FLAG Rho-tagged (SEQ ID 18) Olfr743 (SEQ ID NO: 6) and Olfr740 (SEQ ID NO: 2) cDNA sequences were co-transfected with Gαolf (SEQ ID NO: 21) and exposed to increasing concentrations of indole (left) or skatole (right). FIGS. 5C and 5D are repeat experiments showing similar activity of Olfr740 (SEQ ID NO: 2) with Olfr743 (SEQ ID NO: 6) with indole and skatole. In FIG. 5E, the FLAG Rho-tagged (SEQ ID 18) Olfr746 (SEQ ID NO: 38) cDNA sequence was co-transfected with Gαolf (SEQ ID NO: 21) and exposed to increasing concentrations of indole or skatole. Odorant-induced activity was detected by measuring cAMP levels in the cytosol using the HTRF approach (CisBio kit). […] Co-transfection of HEK cells with Gαolf (SEQ ID NO: 21) alone (no receptor) were used as controls for non-specific activity (control). Activity is defined as the baseline corrected HTRF ratios normalized to the highest signal in the experiment. […] All three receptors show specific dose dependent activity to the malodor compounds and, as such, validate the process for identifying receptors for these compounds. Mouse receptors Olfr740 (SEQ ID NO: 1 and SEQ ID NO: 2) and Olfr743 (SEQ ID NO: 5 and SEQ ID NO: 6) were identified from isolated olfactory neurons that responded to both indole and skatole. Mouse receptor Olfr746 (SEQ ID NO: 37 and SEQ ID NO: 38) was identified in silico by database mining using Olfr740 (SEQ ID NO: 2) and Olfr743 (SEQ ID NO: 6) as query sequences. The receptors are modified at their N-terminus with the FLAG tag and the first 20 amino acids of the bovine rhodopsin receptor (SEQ ID 18), transiently expressed in HEK 293T cells, and stimulated separately with indole and skatole to confirm their identity as bona fide indole/skatole receptors. Co-expression of the human G alpha subunit Gαolf (SEQ ID NO: 21) activates the Gs transduction pathway that leads to an internal cAMP increase upon binding to the appropriate ligand.
Once identified using the procedure outlined herein, the resulting malodor receptor cell lines can be used to screen chemical libraries for compounds that modulate their activity and possibly human perception. This experiment was performed under the same conditions as in Example 4. Cells transfected with Rho-tagged (SEQ ID NO: 18) Olfr743 (SEQ ID NO: 6) were exposed to increasing concentrations of indole in the presence or absence of 300 μM 2-actetonaphthone. […] In the presence of the antagonist compound, a rightward shift of in the dose-response curve is observed resulting in a 4 fold increase in the EC50 to indole. Activity is defined as the baseline corrected HTRF ratios normalized to the highest signal in the experiment.

Chain of Olfr743 (P38405 2-381): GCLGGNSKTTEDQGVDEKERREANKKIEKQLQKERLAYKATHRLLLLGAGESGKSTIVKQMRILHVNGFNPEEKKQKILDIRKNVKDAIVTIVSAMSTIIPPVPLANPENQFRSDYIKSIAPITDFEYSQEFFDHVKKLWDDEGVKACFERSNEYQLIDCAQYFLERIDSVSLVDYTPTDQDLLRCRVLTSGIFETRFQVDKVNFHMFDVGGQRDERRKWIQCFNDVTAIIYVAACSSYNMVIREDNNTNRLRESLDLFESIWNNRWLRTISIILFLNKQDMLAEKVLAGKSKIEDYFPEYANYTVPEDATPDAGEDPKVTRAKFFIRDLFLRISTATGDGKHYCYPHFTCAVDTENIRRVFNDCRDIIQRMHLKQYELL
Chain of Olfr743 (L7N1Y2 entry or part of it): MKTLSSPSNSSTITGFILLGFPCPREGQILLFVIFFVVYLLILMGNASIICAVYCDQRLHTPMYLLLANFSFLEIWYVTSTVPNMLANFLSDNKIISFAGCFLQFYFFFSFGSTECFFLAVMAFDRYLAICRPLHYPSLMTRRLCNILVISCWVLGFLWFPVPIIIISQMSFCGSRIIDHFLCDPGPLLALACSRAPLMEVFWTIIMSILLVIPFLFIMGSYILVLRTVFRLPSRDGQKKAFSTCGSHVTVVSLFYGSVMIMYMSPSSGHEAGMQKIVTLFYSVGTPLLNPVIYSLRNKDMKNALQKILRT

CC(=O)c1ccc2ccccc2c1 [2-acetonaphthone]
inhibition of Olfr743 activity to indole: inhibits the activity | increase in the EC50 to indole (rightward shift of dose-response curve): 4 fold
